From US20220259202A1, “1-(4-(AMINOMETHYL)BENZYL)-2-BUTYL-2H-PYRAZOLO[3,4-C]QUINOLIN-4-AMINE DERIVATIVES AND RELATED COMPOUNDS AS TOLL-LIKE RECEPTOR (TLR) 7/8 AGONISTS, AS WELL AS ANTIBODY DRUG CONJUGATES THEREOF FOR USE IN CANCER THERAPY AND DIAGNOSIS” (SUTRO BIOPHARMA, INC., priority 2019, published 2022)

Tests used:
Experiment in all cases: HEK293 SEAP reporter assay, other TLRs (Biological Example 3)
Type in all cases: cell-based
Conditions in all cases: 16 hrs, up to 1 μM
mouse TLR13 = biological target: T1, mouse TLR13 (Mus musculus, UniProt Q6R5N8)
T1 construct: host or cells: HEK293
T1 sequence (Q6R5N8 69-991): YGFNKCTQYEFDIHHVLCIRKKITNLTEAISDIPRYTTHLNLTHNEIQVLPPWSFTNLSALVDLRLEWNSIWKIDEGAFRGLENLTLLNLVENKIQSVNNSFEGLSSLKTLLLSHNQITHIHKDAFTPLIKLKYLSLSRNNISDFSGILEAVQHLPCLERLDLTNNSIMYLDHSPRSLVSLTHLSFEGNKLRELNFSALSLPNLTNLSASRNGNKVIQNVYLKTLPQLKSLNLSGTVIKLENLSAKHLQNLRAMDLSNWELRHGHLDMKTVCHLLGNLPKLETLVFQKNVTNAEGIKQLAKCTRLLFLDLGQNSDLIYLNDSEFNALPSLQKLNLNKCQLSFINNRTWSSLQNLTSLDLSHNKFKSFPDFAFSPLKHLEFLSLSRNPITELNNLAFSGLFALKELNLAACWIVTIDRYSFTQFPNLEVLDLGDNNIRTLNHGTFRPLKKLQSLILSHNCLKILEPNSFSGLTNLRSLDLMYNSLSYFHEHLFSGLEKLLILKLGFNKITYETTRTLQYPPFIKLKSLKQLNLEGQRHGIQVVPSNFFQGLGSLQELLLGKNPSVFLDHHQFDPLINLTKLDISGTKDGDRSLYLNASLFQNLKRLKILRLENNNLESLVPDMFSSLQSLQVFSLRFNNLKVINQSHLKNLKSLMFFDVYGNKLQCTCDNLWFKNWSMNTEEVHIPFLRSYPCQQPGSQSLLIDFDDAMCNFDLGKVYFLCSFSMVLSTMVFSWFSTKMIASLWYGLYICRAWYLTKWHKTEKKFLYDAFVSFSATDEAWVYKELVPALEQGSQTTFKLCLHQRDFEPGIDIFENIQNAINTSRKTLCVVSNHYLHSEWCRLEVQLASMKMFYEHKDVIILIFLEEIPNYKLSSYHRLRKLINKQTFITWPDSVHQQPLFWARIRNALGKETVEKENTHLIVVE
Description: (§1) In this example, the activity of the Compound 1 to stimulate different human and mouse TLR pathways was investigated on HEK293 cells transfected with inducible SEAP (secreted embryonic alkaline phosphatase) reporter genes and also expressing different human TLRs (TLR2, TLR3, TLR4, TLR5, TLR7, TLR8, TLRS) or mouse TLRs (TLR2, TLR3, TLR4, TLR5, TLR7, TLR8, TLR13). Compound A
(§2) HEK293 reporter cell lines were purchased from Invivogen and cell lines were maintained in manufacture recommended culture medium with required supplemental antibiotics. On the day of assay, the cells were harvested with Accutase and counted by the Vi-CELL Cell Viability Analyzers. Cells were re-suspended in HEK blue detection medium and a total of 10000 cells were seeded in each well of a 384-well flat bottom plate. […] Assay plates were cultured at 37° C. in a CO2 incubator for 16 hrs. HEK-Blue™ Detection medium changes to a purple/blue color in the presence of secreted SEAP, which can be detected by spectrophotometry at 620-655 nm. Data was fitted with non-linear regression analysis, using a log(inhibitor) vs. response-variable slope, 3-parameter fit with GraphPad Prism.

mouse TLR2 = biological target: T2, mouse TLR2 (Mus musculus, UniProt Q9QUN7)
T2 construct: host or cells: HEK293
Description: as §1, §2

mouse TLR4 = biological target: T3, mouse TLR4 (Mus musculus, UniProt Q9JHF9+Q9QUK6)
T3 construct: host or cells: HEK293
T3 sequence (Q9QUK6 26-835): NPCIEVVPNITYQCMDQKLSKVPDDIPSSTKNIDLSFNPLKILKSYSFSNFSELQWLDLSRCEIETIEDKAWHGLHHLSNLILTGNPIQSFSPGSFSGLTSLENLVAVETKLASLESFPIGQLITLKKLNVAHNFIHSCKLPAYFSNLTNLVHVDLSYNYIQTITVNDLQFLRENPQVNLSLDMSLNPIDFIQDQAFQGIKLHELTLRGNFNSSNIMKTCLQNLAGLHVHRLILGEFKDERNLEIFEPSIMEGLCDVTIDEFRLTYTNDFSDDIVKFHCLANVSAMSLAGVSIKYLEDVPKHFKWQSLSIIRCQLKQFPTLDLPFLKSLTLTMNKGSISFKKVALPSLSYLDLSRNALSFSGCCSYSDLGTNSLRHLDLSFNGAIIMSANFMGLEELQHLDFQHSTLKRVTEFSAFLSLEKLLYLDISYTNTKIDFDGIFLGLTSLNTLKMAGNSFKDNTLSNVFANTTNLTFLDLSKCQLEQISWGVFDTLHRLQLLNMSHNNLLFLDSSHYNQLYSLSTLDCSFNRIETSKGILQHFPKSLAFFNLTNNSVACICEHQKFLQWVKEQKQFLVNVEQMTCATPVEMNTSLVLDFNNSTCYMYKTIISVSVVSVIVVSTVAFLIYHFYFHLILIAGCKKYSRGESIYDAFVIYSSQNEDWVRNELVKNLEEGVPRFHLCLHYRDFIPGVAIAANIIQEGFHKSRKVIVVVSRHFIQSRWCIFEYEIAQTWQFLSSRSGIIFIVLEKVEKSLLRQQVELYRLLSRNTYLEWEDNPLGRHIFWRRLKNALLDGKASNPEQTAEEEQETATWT
T3 sequence (Q9JHF9 19-160): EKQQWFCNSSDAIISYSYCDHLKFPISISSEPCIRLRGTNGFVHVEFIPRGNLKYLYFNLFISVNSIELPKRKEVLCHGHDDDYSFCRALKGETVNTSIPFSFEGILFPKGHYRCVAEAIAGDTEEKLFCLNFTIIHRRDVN
Description: as §1, §2

mouse TLR5 = biological target: T4, mouse TLR5 (Mus musculus, UniProt Q9JLF7)
T4 construct: host or cells: HEK293
Description: as §1, §2

Measured: EC50

T4 sequence (Q9JLF7 27-859): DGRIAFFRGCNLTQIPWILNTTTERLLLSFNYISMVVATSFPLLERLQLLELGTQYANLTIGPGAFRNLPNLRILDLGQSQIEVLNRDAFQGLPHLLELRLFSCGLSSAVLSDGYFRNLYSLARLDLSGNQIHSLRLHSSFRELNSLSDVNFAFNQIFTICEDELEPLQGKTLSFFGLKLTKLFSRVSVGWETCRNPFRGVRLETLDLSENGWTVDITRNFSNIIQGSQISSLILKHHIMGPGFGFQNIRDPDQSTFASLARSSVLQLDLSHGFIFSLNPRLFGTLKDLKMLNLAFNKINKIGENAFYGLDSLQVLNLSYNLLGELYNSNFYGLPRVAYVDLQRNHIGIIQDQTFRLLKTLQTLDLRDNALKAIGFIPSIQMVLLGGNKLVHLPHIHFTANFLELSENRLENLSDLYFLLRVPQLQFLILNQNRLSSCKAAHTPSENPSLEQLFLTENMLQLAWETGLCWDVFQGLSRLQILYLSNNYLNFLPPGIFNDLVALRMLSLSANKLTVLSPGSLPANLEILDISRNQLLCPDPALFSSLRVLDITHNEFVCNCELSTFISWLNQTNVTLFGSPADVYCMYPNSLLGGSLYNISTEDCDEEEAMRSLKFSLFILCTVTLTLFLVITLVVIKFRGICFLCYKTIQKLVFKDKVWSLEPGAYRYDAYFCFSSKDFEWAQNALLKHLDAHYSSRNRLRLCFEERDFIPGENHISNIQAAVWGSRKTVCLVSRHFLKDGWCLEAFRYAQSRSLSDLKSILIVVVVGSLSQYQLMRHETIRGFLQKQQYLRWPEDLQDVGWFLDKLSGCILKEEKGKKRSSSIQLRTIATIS
T2 sequence (Q9QUN7 25-784): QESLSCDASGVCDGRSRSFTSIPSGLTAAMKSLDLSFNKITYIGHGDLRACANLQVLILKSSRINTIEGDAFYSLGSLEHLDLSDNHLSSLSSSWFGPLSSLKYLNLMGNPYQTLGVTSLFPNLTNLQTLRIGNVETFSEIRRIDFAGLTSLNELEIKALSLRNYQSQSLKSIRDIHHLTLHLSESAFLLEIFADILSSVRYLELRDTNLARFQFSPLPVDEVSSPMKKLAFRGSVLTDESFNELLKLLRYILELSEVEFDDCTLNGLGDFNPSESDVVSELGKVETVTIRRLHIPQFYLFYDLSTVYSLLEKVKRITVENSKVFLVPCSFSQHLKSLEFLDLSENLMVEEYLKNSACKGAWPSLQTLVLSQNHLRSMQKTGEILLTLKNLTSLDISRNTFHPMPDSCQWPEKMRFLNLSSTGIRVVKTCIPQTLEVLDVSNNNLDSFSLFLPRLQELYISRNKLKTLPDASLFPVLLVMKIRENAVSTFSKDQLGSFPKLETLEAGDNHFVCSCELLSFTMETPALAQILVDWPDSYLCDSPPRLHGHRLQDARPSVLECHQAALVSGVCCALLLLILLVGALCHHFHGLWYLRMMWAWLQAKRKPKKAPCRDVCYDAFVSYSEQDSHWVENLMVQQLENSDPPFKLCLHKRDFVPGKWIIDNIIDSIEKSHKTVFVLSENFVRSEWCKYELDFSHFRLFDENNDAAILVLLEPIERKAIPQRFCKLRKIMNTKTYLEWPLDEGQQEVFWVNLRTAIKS

CCCCn1nc2c(N)nc3ccccc3c2c1Cc1ccc(CN)cc1 [Compound 1, 1-(4-(aminomethyl)benzyl)-2-butyl-2H-pyrazolo[3,4-c]quinolin-4-amine]
> 1000 nM: all assays above

CCCCc1nc2c(N)nc3ccccc3c2n1Cc1ccc(CN)cc1 [Compound A, reference compound]
> 1000 nM: all assays above
